For ten compounds, IC50 results are on record in patent publication US10633419B2, “Immunomodulators” (BRISTOL-MYERS SQUIBB COMPANY, priority 2014, dated 2020).

Each structure is given as a SMILES string. Positions of bridges follow the written chain, without caps; N, C: chain ends. Non-standard residues stand in square brackets, D forms with d. Residues, ends and D or L forms follow the SMILES beside them. Trp(1-CH2COOH) = N[C@@H](Cc1cn(CC(=O)O)c2ccccc12)C(=O)O; Bta = N[C@@H](Cc1csc2ccccc12)C(=O)O; Aha = [N-]=[N+]=NCC[C@H](N)C(=O)O; Hyp = O=C(O)[C@@H]1C[C@@H](O)CN1; NMeNle = CCCC[C@H](NC)C(=O)O; Dap(Me) = CNC[C@H](N)C(=O)O; Pip = O=C(O)[C@@H]1CCCCN1; NMeA = CN[C@@H](C)C(=O)O; Pra = C#CC[C@H](N)C(=O)O; Dab = NCC[C@H](N)C(=O)O; Dap = NC[C@H](N)C(=O)O

The target in this test is T1, PD-L1 (Homo sapiens, UniProt Q9NZQ7).
T1 construct: hPDL1(19-239)-TVMV-His; made in house; host or cells: HEK293T
T1 sequence (Q9NZQ7 with tags, fused parts or gaps): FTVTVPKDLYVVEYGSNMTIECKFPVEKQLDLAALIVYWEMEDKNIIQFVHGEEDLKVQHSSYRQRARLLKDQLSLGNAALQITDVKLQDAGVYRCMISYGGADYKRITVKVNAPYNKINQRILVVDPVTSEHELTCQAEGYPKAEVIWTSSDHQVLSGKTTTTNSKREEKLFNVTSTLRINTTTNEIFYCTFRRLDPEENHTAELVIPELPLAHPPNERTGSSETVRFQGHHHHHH
Kind of test: PD-1/PD-L1 Homogenous Time-Resolved Fluorescence (HTRF) binding assay (PD-1-Ig/PD-L1-His). To be noted: inhibition of PD-1-Ig binding to PD-L1-TVMV-His; value given as range class; read-out: HTRF IC50. In short, it runs like this:
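HTRF competition in dPBS with 0.1% BSA and 0.05% Tween-20: 20 nM PD-1-Ig added after 15 min compound pre-incubation with 10 nM PD-L1-His, then another 15 min. Signal (665/620 nm) after 30 min with APC anti-His (20 nM) and Eu anti-Ig (1 nM).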
By IC50 is commonly meant the concentration at which inhibition is half-maximal. Take `C#CC[C@H](NC(=O)CNC(=O)[C@@H]1CSCC(=O)N[C@@H](Cc2ccc(O)cc2)C(=O)N2CCCC[C@H]2C(=O)N[C@@H](CC(N)=O)C(=O)N2CCC[C@H]2C(=O)N[C@@H](CNC)C(=O)N[C@@H](CC(C)C)C(=O)N2C[C@H](O)C[C@H]2C(=O)N[C@@H](Cc2c[nH]c3ccccc23)C(=O)N[C@@H](CCN)C(=O)N[C@@H](Cc2cn(CC(=O)O)c3ccccc23)C(=O)N(C)[C@@H](CCCC)C(=O)N(C)[C@@H](CCCC)C(=O)N[C@@H](CC(C)C)C(=O)N1)C(=O)O` [INT130AK] ({CH2CO}-Y[Pip]NP[Dap(Me)]L[Hyp]W[Dab][Trp(1-CH2COOH)][NMeNle][NMeNle]LCG[Pra]-OH; thioether N-14): the IC50 was 0.3 to 9.9 nM. `C#CC[C@H](NC(=O)CNC(=O)[C@@H]1CSCC(=O)N[C@@H](Cc2ccc(O)cc2)C(=O)N2CCCC[C@H]2C(=O)N[C@@H](CC(N)=O)C(=O)N2CCC[C@H]2C(=O)N[C@@H](CNC)C(=O)N[C@@H](CC(C)C)C(=O)N2C[C@H](O)C[C@H]2C(=O)N[C@@H](Cc2c[nH]c3ccccc23)C(=O)N[C@@H](CCN)C(=O)N[C@@H](Cc2cn(CC(=O)O)c3ccccc23)C(=O)N(C)[C@@H](CCCC)C(=O)N(C)[C@@H](CCCC)C(=O)N[C@@H](CCC(=O)O)C(=O)N1)C(=O)O` [INT130AL] ({CH2CO}-Y[Pip]NP[Dap(Me)]L[Hyp]W[Dab][Trp(1-CH2COOH)][NMeNle][NMeNle]ECG[Pra]-OH; thioether N-14): the IC50 lay within 0.3 to 9.9 nM. To `C#CC[C@H](NC(=O)CNC(=O)[C@@H]1CSCC(=O)N[C@@H](Cc2ccc(O)cc2)C(=O)N(C)[C@@H](C)C(=O)N[C@@H](CC(N)=O)C(=O)N2CCC[C@H]2C(=O)N[C@@H](CN)C(=O)N[C@@H](CC(C)C)C(=O)N2C[C@H](O)C[C@H]2C(=O)N[C@@H](Cc2c[nH]c3ccccc23)C(=O)N[C@@H](CO)C(=O)N[C@@H](Cc2csc3ccccc23)C(=O)N(C)[C@@H](CCCC)C(=O)N(C)[C@@H](CCCC)C(=O)N[C@@H](CCCNC(=N)N)C(=O)N1)C(N)=O` [INT 1300A] ({CH2CO}-Y[NMeA]NP[Dap]L[Hyp]WS[Bta][NMeNle][NMeNle]RCG[Pra]-NH2; thioether N-14) belongs 0.3 to 9.9 nM. To `CCCC[C@H]1C(=O)N(C)[C@@H](CCCC)C(=O)N[C@@H](CCCNC(=N)N)C(=O)N[C@H](C(=O)NCC(=O)N[C@@H](CCN=[N+]=[N-])C(N)=O)CSCC(=O)N[C@@H](Cc2ccc(O)cc2)C(=O)N(C)[C@@H](C)C(=O)N[C@@H](CC(N)=O)C(=O)N2CCC[C@H]2C(=O)N[C@@H](CN)C(=O)N[C@@H](CC(C)C)C(=O)N2C[C@H](O)C[C@H]2C(=O)N[C@@H](Cc2c[nH]c3ccccc23)C(=O)N[C@@H](CO)C(=O)N[C@@H](Cc2csc3ccccc23)C(=O)N1C` [INT 1300B] ({CH2CO}-Y[NMeA]NP[Dap]L[Hyp]WS[Bta][NMeNle][NMeNle]RCG[Aha]-NH2; thioether N-14) belongs 0.3 to 9.9 nM. As for `CCCC[C@H]1C(=O)N(C)[C@@H](CCCC)C(=O)N[C@@H](CCCNC(=N)N)C(=O)N[C@H](C(=O)NCC(=O)NCC(=O)N[C@@H](CCN=[N+]=[N-])C(N)=O)CSCC(=O)N[C@@H](Cc2ccc(O)cc2)C(=O)N(C)[C@@H](C)C(=O)N[C@@H](CC(N)=O)C(=O)N2CCC[C@H]2C(=O)N[C@@H](CN)C(=O)N[C@@H](CC(C)C)C(=O)N2C[C@H](O)C[C@H]2C(=O)N[C@@H](Cc2c[nH]c3ccccc23)C(=O)N[C@@H](CO)C(=O)N[C@@H](Cc2csc3ccccc23)C(=O)N1C` [INT 1300C] ({CH2CO}-Y[NMeA]NP[Dap]L[Hyp]WS[Bta][NMeNle][NMeNle]RCGG[Aha]-NH2; thioether N-14), the IC50 was 0.3 to 9.9 nM.

Consider `C#CC[C@H](NC(=O)CNC(=O)[C@@H]1CSCC(=O)N[C@@H](Cc2ccc(O)cc2)C(=O)N(C)[C@@H](C)C(=O)N[C@@H](CC(N)=O)C(=O)N2CCC[C@H]2C(=O)N[C@@H](CN)C(=O)N[C@@H](CC(C)C)C(=O)N2C[C@H](O)C[C@H]2C(=O)N[C@@H](Cc2c[nH]c3ccccc23)C(=O)N[C@@H](CCN)C(=O)N[C@@H](Cc2cn(CC(=O)O)c3ccccc23)C(=O)N(C)[C@@H](CCCC)C(=O)N(C)[C@@H](CCCC)C(=O)N[C@@H](CC(C)C)C(=O)N1)C(=O)O` [INT 1300V] ({CH2CO}-Y[NMeA]NP[Dap]L[Hyp]W[Dab][Trp(1-CH2COOH)][NMeNle][NMeNle]LCG[Pra]-OH; thioether N-14), for which the IC50 lay within 10 to 99 nM. To `C#CC[C@H](NC(=O)CNC(=O)[C@@H]1CSCC(=O)N[C@@H](Cc2ccc(O)cc2)C(=O)N(C)[C@@H](C)C(=O)N[C@@H](CC(N)=O)C(=O)N2CCC[C@H]2C(=O)N[C@@H](CN)C(=O)N[C@@H](CC(C)C)C(=O)N2C[C@H](O)C[C@H]2C(=O)N[C@@H](Cc2c[nH]c3ccccc23)C(=O)N[C@@H](CCN)C(=O)N[C@@H](Cc2cn(CC(=O)O)c3ccccc23)C(=O)N(C)[C@@H](CCCC)C(=O)N(C)[C@@H](CCCC)C(=O)N[C@@H](CC(C)C)C(=O)N1)C(N)=O` [INT 1300W] ({CH2CO}-Y[NMeA]NP[Dap]L[Hyp]W[Dab][Trp(1-CH2COOH)][NMeNle][NMeNle]LCG[Pra]-NH2; thioether N-14) belongs 10 to 99 nM.

`C#CC[C@H](NC(=O)CNC(=O)[C@@H]1CSCC(=O)N[C@@H](Cc2ccc(O)cc2)C(=O)N(C)[C@@H](C)C(=O)N[C@@H](CC(N)=O)C(=O)N2CCC[C@H]2C(=O)N[C@@H](CN)C(=O)N[C@@H](CC(C)C)C(=O)N2C[C@H](O)C[C@H]2C(=O)N[C@@H](Cc2c[nH]c3ccccc23)C(=O)N[C@@H](CO)C(=O)N[C@@H](Cc2cn(CC(=O)O)c3ccccc23)C(=O)N(C)[C@@H](CCCC)C(=O)N(C)[C@@H](CCCC)C(=O)N[C@@H](CC(C)C)C(=O)N1)C(N)=O` [INT 1300X] ({CH2CO}-Y[NMeA]NP[Dap]L[Hyp]WS[Trp(1-CH2COOH)][NMeNle][NMeNle]LCG[Pra]-NH2; thioether N-14): the IC50 was in the range of 10 to 99 nM.

As for `C#CC[C@H](NC(=O)CNC(=O)[C@@H]1CSCC(=O)N[C@@H](Cc2ccc(O)cc2)C(=O)N(C)[C@@H](C)C(=O)N[C@@H](CC(=O)O)C(=O)N2CCC[C@H]2C(=O)N[C@@H](Cc2c[nH]cn2)C(=O)N[C@@H](CCCCN)C(=O)N2C[C@H](O)C[C@H]2C(=O)N[C@@H](Cc2c[nH]c3ccccc23)C(=O)N[C@@H](CCCCN)C(=O)N[C@@H](Cc2cn(CC(=O)O)c3ccccc23)C(=O)N(C)[C@@H](CCCC)C(=O)N(C)[C@@H](CCCC)C(=O)N[C@@H](CCC(=O)O)C(=O)N1)C(=O)O` [INT 1300Y] ({CH2CO}-Y[NMeA]DPHK[Hyp]WK[Trp(1-CH2COOH)][NMeNle][NMeNle]ECG[Pra]-OH; thioether N-14), the IC50 is 0.3 to 9.9 nM. For `C#CC[C@H](NC(=O)CNC(=O)[C@@H]1CSCC(=O)N[C@@H](Cc2ccc(O)cc2)C(=O)N(C)[C@@H](C)C(=O)N[C@@H](CC(=O)O)C(=O)N2CCC[C@H]2C(=O)N[C@@H](Cc2c[nH]cn2)C(=O)N[C@@H](CCCCN)C(=O)N2C[C@H](O)C[C@H]2C(=O)N[C@@H](Cc2c[nH]c3ccccc23)C(=O)N[C@@H](CCCCN)C(=O)N[C@@H](Cc2c[nH]c3ccccc23)C(=O)N(C)[C@@H](CCCC)C(=O)N(C)[C@@H](CCCC)C(=O)N[C@@H](CCC(=O)O)C(=O)N1)C(=O)NCC(N)=O` [INT 1400A] ({CH2CO}-Y[NMeA]DPHK[Hyp]WKW[NMeNle][NMeNle]ECG[Pra]G-NH2; thioether N-14) the value was 0.3 to 9.9 nM.
